The term melting point denotes the temperature of the solid-liquid transition.

18 compounds from US6787543B2, “Benzhydryl derivatives” (Fujisawa Pharmaceutical Co., Ltd., priority 2002, dated 2004) can be followed below.

Structures are written as SMILES.

Data set [1] concerns emesis in the dog. As to the kind of experiment: Emesis in the Dog (apomorphine-induced retching and vomiting). The class given is in vivo. Particulars: adult female dogs; test compound i.v. at 1.0 mg/kg; 5 min later subcutaneous apomorphine (0.1 mg/0.5 ml/kg); observed for 60 min. As to the method: Individually housed adult female dogs (8 to 15 kg) were given an i.v. injection of a solution containing a test compound. 5 Min later the emetic responses (retching and vomiting) were induced by administration of subcutaneous apomorphine (0.1 mg/0.5 ml/kg) and observed for the next 60 min. The timing and number of retches and vomits observed were recorded for each animal. An individual animal was tested with at least 10 days between experiments.

Turning to `CCC(=O)N1CCN2[C@H](CN(Cc3cc(-n4nnnc4C(F)(F)F)ccc3OC)C[C@H]2C(c2ccccc2)c2ccccc2)C1.Cl.Cl`, the melting point was in the range of 171 to 175 °C. For `COc1ccc(-n2nnnc2C(F)(F)F)cc1CN1C[C@@H]2CN(C(=O)C(C)C)CCN2[C@H](C(c2ccccc2)c2ccccc2)C1.Cl.Cl`, the melting point lay within 172 to 175 °C. The same measure, in the same setting: then `CCCC(=O)N1CCN2[C@H](CN(Cc3cc(-n4nnnc4C(F)(F)F)ccc3OC)C[C@H]2C(c2ccccc2)c2ccccc2)C1.Cl.Cl`, with 162 to 166 °C. In turn, `CCOC(=O)N1CCN2[C@H](CN(Cc3cc(-n4nnnc4C(F)(F)F)ccc3OC)C[C@H]2C(c2ccccc2)c2ccccc2)C1.Cl.Cl` had a melting point of 153 to 156 °C. Regarding `COc1ccc(-n2nnnc2C(F)(F)F)cc1CN1C[C@@H]2CN(C(=O)OC(C)C)CCN2[C@H](C(c2ccccc2)c2ccccc2)C1.Cl.Cl`, the melting point lay in the range of 147 to 150 °C. In the case of `COc1ccc(-n2nnnc2C(F)(F)F)cc1CN1C[C@@H]2CN(C(=O)CC(C)C)CCN2[C@H](C(c2ccccc2)c2ccccc2)C1.Cl.Cl`, the melting point is 138 to 150 °C (dec.). Take `CCS(=O)(=O)N1CCN2[C@H](CN(Cc3cc(-n4nnnc4C(F)(F)F)ccc3OC)C[C@H]2C(c2ccccc2)c2ccccc2)C1.Cl.Cl`: the melting point fell in the range of 143 to 146 °C. Compound `CCCS(=O)(=O)N1CCN2[C@H](CN(Cc3cc(-n4nnnc4C(F)(F)F)ccc3OC)C[C@H]2C(c2ccccc2)c2ccccc2)C1.Cl.Cl` yielded a melting point of 146 to 165 °C. Turning to `COc1ccc(-n2nnnc2C(F)(F)F)cc1CN1C[C@@H]2CN(S(=O)(=O)C(C)C)CCN2[C@H](C(c2ccccc2)c2ccccc2)C1.Cl.Cl`, the melting point fell in the range of 150 to 155 °C. `COc1ccc(-c2ccsc2)cc1CN1C[C@@H]2CN(C(C)=O)CCN2[C@H](C(c2ccccc2)c2ccccc2)C1.Cl.Cl` gave a melting point of 177 to 181 °C. Turning to `COc1ccc(C(F)(F)F)cc1CN1C[C@@H]2CN(C(C)=O)CCN2[C@H](C(c2ccccc2)c2ccccc2)C1.Cl.Cl`, the melting point was in the range of 147 to 150 °C. The compound `COc1ccc(-c2ccncc2)cc1CN1C[C@@H]2CN(C(C)=O)CCN2[C@H](C(c2ccccc2)c2ccccc2)C1.Cl.Cl.Cl` showed a melting point of 210 to 215 °C. With `CCOc1ccc(-n2nnnc2C(F)(F)F)cc1CN1C[C@@H]2CN(C(C)=O)CCN2[C@H](C(c2ccccc2)c2ccccc2)C1.Cl.Cl`, the melting point was 162 to 165 °C. As to `COc1ccc(-c2ccoc2)cc1CN1C[C@@H]2CN(C(C)=O)CCN2[C@H](C(c2ccccc2)c2ccccc2)C1.Cl.Cl`, the melting point lay in the range of 173 to 177 °C. On the same count and under the same terms, then `COc1ccncc1CN1C[C@@H]2CN(C(C)=O)CCN2[C@H](C(c2ccccc2)c2ccccc2)C1.Cl.Cl.Cl`, with 205 to 210 °C; and `CC(=O)N1CCN2[C@H](CN(Cc3cc(-n4nnnc4C(F)(F)F)ccc3OC(C)C)C[C@H]2C(c2ccccc2)c2ccccc2)C1.Cl.Cl`, with 167 to 171 °C. With `COc1cc(OC)c(CN2C[C@@H]3CN(C(C)=O)CCN3[C@H](C(c3ccccc3)c3ccccc3)C2)c(OC)c1.Cl.Cl`, the melting point lay within 170 to 173 °C. Consider `COC(=O)N1CCN2[C@H](CN(Cc3cc(-n4nnnc4C(F)(F)F)ccc3OC)C[C@H]2C(c2ccccc2)c2ccccc2)C1.Cl.Cl` [Example 28, (6R,9aR)-6-benzhydryl-8-[2-methoxy-5-[5-(trifluoromethyl)-1H-tetrazol-1-yl]benzyl]octahydropyrazino[1,2-a]pyrazine-2-carboxylic acid methyl ester dihydrochloride], for which the “inhibition rate of emesis” value in data set [1] came to 90%.
